Measured values taken from US20240197651A1, “DEXMECAMYLAMINE AND USES THEREOF” (Atacama Therapeutics, Inc., priority 2021, published 2024).

Key:
Assay type in all cases: in vivo
[1] = test system: patients with sebaceous carcinoma; test: Treatment of sebaceous carcinoma
Description: The compound of the disclosure (e.g., dexmecamylamine substantially free of exo-R-mecamylamine) is administered to patients with sebaceous carcinoma. […] In some embodiments, the subject produces sebum in an amount of 100 μg/cm^2 and above (e.g., 125, 135, 150, 175, 200 μg/cm^2 or higher).

patients with oily skin = test: Treatment of oily skin
Description: The compound of the disclosure (e.g., dexmecamylamine substantially free of exo-R-mecamylamine) is administered to patients with oily skin. […] In some embodiments, the subject produces sebum in an amount of 100 μg/cm^2 and above (e.g., 125, 135, 150, 175, 200 μg/cm^2 or higher).

[2] = test system: patients with sebaceous cyst; test: Treatment of sebaceous cyst
Description: The compound of the disclosure (e.g., dexmecamylamine substantially free of exo-R-mecamylamine) is administered to patients with sebaceous cyst. […] In some embodiments, the subject produces sebum in an amount of 100 μg/cm^2 and above (e.g., 125, 135, 150, 175, 200 μg/cm^2 or higher).

[3] = test system: patients with sebaceous hyperplasia; test: Treatment of sebaceous hyperplasia
Description: The compound of the disclosure (e.g., dexmecamylamine substantially free of exo-R-mecamylamine) is administered to patients with sebaceous hyperplasia. […] In some embodiments, the subject produces sebum in an amount of 100 μg/cm^2 and above (e.g., 125, 135, 150, 175, 200 μg/cm^2 or higher).

patients with wrinkles = test: Treatment of wrinkles
Description: The compound of the disclosure (e.g., dexmecamylamine substantially free of exo-R-mecamylamine) is administered to patients with wrinkles. […] In some embodiments, the subject produces sebum in an amount of 100 μg/cm^2 and above (e.g., 125, 135, 150, 175, 200 μg/cm^2 or higher).

[4] = test system: patients with seborrheic dermatitis; test: Treatment of seborrheic dermatitis
Description: The compound of the disclosure (e.g., dexmecamylamine substantially free of exo-R-mecamylamine) is administered to patients with seborrheic dermatitis. […] In some embodiments, the subject produces sebum in an amount of 100 μg/cm^2 and above (e.g., 125, 135, 150, 175, 200 μg/cm^2 or higher).

[5] = test system: patients with hidradenitis suppurativa; test: Treatment of hidradenitis suppurativa
Description: The compound of the disclosure (e.g., dexmecamylamine substantially free of exo-R-mecamylamine) is administered to patients with hidradenitis suppurativa. […] In some embodiments, the subject produces sebum in an amount of 100 μg/cm^2 and above (e.g., 125, 135, 150, 175, 200 μg/cm^2 or higher). In particular, 4 mg of dexmecamylamine hydrochloride is administered orally twice a day to a subject with hidradenitis suppurativa. Efficacy is measured by a change in pain, as measured using a 10-point numerical rating scale, 1 through 10, with 10 being the worst, from baseline to week 12; a change in quality of life using Dermatology Life Quality Index (DLQI) from baseline to week 12; a change in clinical status using the Hurley Staging from baseline to week 12; a change in clinical status using the International Hidradenitis Suppurative Severity Score System (IHS4) from baseline to week 12; a change in clinical status using the Hidradenitis Suppurative Clinical Response (HiSCR) from baseline to week 12; a change in clinical status using the Hidradenitis Suppurative Physician Global Assessment (HS-PGA) from baseline to week 12; a change in clinical status using the Hidradenitis Suppurative Area and Severity Index-Revised (HASI-R) from baseline to week 12; and/or a change in the absolute number of abscesses and inflammatory nodules.

patients with seborrhea = test: Treatment of seborrhea
Description: The compound of the disclosure (e.g., dexmecamylamine substantially free of exo-R-mecamylamine) is administered to patients with seborrhea. […] In some embodiments, the subject produces sebum in an amount of 100 μg/cm^2 and above (e.g., 125, 135, 150, 175, 200 μg/cm^2 or higher).

[6] = test system: patients with enlarged pores; test: Treatment of enlarged pores
Description: The compound of the disclosure (e.g., dexmecamylamine substantially free of exo-R-mecamylamine) is administered to patients with enlarged pores. […] In some embodiments, the compound is dexmecamylamine substantially free of exo-R-mecamylamine, or a pharmaceutically acceptable salt thereof. In some embodiments, the subject produces sebum in an amount of 100 μg/cm^2 and above (e.g., 125, 135, 150, 175, 200 μg/cm^2 or higher).

patients with acne = test: Treatment of acne
Description: The compound of the disclosure (e.g., dexmecamylamine substantially free of exo-R-mecamylamine or pharmaceutically acceptable salt thereof) is administered to patients with acne. […] In some embodiments, the compound is dexmecamylamine substantially free of exo-R-mecamylamine, or a pharmaceutically acceptable salt thereof. In some embodiments, the subject produces sebum in an amount of 100 μg/cm^2 and above (e.g., 125, 135, 150, 175, 200 μg/cm^2 or higher). In particular, 4 mg of dexmecamylamine hydrochloride is administered orally twice a day to a subject. Subjects have oily skin (>100 μg/cm^2) as measured on three locations of the face by a Sebumeter® grease spot photometry device and has facial acne vulgaris (including the nose). Efficacy is determined by a comparison of sebum as an absolute change from baseline at 12 weeks. Other measures of efficacy include the absolute change from baseline in inflammatory and non-inflammatory lesion counts at 8 weeks and the percent change from baseline in lesion counts (inflammatory and noninflammatory) at weeks 8 and 12. […] The assessment may include the quantity of lesions, size of lesions, intensity of inflammation, and location of lesions to consider the quality and quantity of lesions.

[7] = test system: patients with sebaceous adenoma; test: Treatment of sebaceous adenoma
Description: The compound of the disclosure (e.g., dexmecamylamine substantially free of exo-R-mecamylamine) is administered to patients with sebaceous adenoma. […] In some embodiments, the subject produces sebum in an amount of 100 μg/cm^2 and above (e.g., 125, 135, 150, 175, 200 μg/cm^2 or higher).

[8] = test system: human subjects with hyperhidrosis and oily skin; test: Phase II clinical study, facial sebum production; settings: for Average response category at 2 weeks: change in percent of average facial sebum quantity at end of 2-week treatment vs baseline; for Average response category at 4 weeks: change in percent of average facial sebum quantity at end of 4-week treatment vs baseline; for Responders (%): subjects with 20% or greater reduction in sebum quantity following treatment
Source text: Acne vulgaris is a dermatological condition characterized by increased sebum production, which is driven, in part, by cholinergic signaling within the sympathetic nervous system. Activation of nicotinic receptors on human sebaceous glands is known to increase sebum production and secretion. Dexmecamylamine acts on nicotinic acetylcholine receptors to reduce sympathetic tone through the selective inhibition of presynaptic nicotinic receptors in the sympathetic ganglia. In order to determine the therapeutic efficacy of dexmecamylamine in the treatment of acne and related conditions, the inventors leveraged a Phase II clinical study in 15 human subjects with hyperhidrosis and oily skin (i.e., sebum production of 100 μg/cm^2 or greater (e.g., 125, 135, 150, 175, 200 μg/cm^2 or higher)) that were treated with dexmecamylamine hydrochloride. […] [table]

CN[C@@]1(C)[C@@H]2CC[C@@H](C2)C1(C)C [dexmecamylamine]
symptoms, sebaceous carcinoma [1]: improved symptoms | symptoms, oil production by the skin (patients with oily skin): improved symptoms | symptoms, sebaceous cyst [2]: improved symptoms | symptoms, sebaceous hyperplasia [3]: improved symptoms | symptoms, wrinkles (patients with wrinkles): improved symptoms | symptoms, seborrheic dermatitis [4]: improved symptoms | symptoms, hidradenitis suppurativa [5]: improved symptoms | symptoms, seborrhea (patients with seborrhea): improved symptoms | symptoms, enlarged pores [6]: improved symptoms | symptoms of acne (whiteheads, blackheads, papules, pimples, nodules, cysts) (patients with acne): improved symptoms | symptoms, sebaceous adenoma [7]: improved symptoms | Average response category at 2 weeks ([8]; 2 mg BID): Low (Reduction in sebum production of less than 20%.) | Average response category at 4 weeks ([8]; 2 mg BID): Medium^†† (Reduction in sebum production between 20% and 35%.) | Responders (%) ([8]; 2 mg BID): 80% | facial sebum production ([8]; 2 mg or 4 mg BID, four weeks of treatment): reduction in facial sebum production | Average response category at 2 weeks ([8]; 4 mg BID): Low (Reduction in sebum production of less than 20%.) | Average response category at 4 weeks ([8]; 4 mg BID): High^††† (Reduction in sebum production of greater than 35%.) | Responders (%) ([8]; 4 mg BID): 100%
